According to patent US20260092071A1, “COMPOUNDS AND COMPOSITIONS AS SMARCA2/4 DEGRADERS AND USES THEREOF” (REGENTS OF THE UNIVERSITY OF MICHIGAN, priority 2022, published 2026):
Like-named read-outs stand apart in the source and are kept apart here.

Assays:
SMARCA2 = SMARCA2 (Homo sapiens, UniProt P51531); assay: HiBiT assay for protein degradation, Hela SMARCA2-HiBiT cells (A series); assay type: cell-based; set-up: Hela cells were genetically modified via CRISPR/Cas9 to fuse HiBiT to the carboxy terminus of SMARCA2; host or cells: HeLa (CRISPR/Cas9 HiBiT knock-in); details: for DC50: read-out: SMARC A2 Hela HiBit DC50; for Dmax: read-out: SMARC A2 Hela HiBit Dmax (%);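 on SMARC A2 Hela HiBit Dmax (%): 24 h compound treatment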
Method in brief: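 HeLa cells engineered by CRISPR/Cas9 to carry a HiBiT tag fused to the C-terminus of SMARCA2 (Promega CS302365) were grown in DMEM supplemented with FBS and penicillin-streptomycin. After treatment, remaining SMARCA2 protein was quantified with the Nano-Glo® HiBiT Lytic Detection Assay (Promega N3050), and curves were fitted in GraphPad Prism.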

SMARCA4 = SMARCA4 (Homo sapiens, UniProt P51532); assay: HiBiT assay for protein degradation, Hela SMARCA4-HiBiT cells (A series); assay type: cell-based; set-up: fuse HiBiT to the carboxy terminus of SMARCA2 (Promega CS302365) or SMARCA4 (Promega CS3023225); host or cells: HeLa (CRISPR/Cas9 HiBiT knock-in); details: for DC50: read-out: SMARC A4 Hela HiBit DC50
Method in brief: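 HeLa cells engineered by CRISPR/Cas9 to carry a HiBiT tag fused to the C-terminus of SMARCA4 (Promega CS3023225) were grown in DMEM supplemented with FBS and penicillin-streptomycin. After compound exposure, remaining SMARCA4 protein was quantified using the Nano-Glo® HiBiT Lytic Detection Assay (Promega N3050), and curves were fitted in GraphPad Prism.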

[1] = Hela SMARCA2-HiBiT cells, 24 hours treatment
[2] = Hela SMARCA4-HiBiT cells, 24 hours treatment
[3] = Hela SMARCA4-HiBiT cells, 24 hours treatment, read-out: SMARC A4 Hela HiBit Dmax
[4] = Hela SMARCA4-HiBiT cells, 24 hours treatment, read-out: SMARC A4 Hela HiBit Dmax(%)

Sequence of SMARCA4 (P51532 whole entry, the tested form may be a part): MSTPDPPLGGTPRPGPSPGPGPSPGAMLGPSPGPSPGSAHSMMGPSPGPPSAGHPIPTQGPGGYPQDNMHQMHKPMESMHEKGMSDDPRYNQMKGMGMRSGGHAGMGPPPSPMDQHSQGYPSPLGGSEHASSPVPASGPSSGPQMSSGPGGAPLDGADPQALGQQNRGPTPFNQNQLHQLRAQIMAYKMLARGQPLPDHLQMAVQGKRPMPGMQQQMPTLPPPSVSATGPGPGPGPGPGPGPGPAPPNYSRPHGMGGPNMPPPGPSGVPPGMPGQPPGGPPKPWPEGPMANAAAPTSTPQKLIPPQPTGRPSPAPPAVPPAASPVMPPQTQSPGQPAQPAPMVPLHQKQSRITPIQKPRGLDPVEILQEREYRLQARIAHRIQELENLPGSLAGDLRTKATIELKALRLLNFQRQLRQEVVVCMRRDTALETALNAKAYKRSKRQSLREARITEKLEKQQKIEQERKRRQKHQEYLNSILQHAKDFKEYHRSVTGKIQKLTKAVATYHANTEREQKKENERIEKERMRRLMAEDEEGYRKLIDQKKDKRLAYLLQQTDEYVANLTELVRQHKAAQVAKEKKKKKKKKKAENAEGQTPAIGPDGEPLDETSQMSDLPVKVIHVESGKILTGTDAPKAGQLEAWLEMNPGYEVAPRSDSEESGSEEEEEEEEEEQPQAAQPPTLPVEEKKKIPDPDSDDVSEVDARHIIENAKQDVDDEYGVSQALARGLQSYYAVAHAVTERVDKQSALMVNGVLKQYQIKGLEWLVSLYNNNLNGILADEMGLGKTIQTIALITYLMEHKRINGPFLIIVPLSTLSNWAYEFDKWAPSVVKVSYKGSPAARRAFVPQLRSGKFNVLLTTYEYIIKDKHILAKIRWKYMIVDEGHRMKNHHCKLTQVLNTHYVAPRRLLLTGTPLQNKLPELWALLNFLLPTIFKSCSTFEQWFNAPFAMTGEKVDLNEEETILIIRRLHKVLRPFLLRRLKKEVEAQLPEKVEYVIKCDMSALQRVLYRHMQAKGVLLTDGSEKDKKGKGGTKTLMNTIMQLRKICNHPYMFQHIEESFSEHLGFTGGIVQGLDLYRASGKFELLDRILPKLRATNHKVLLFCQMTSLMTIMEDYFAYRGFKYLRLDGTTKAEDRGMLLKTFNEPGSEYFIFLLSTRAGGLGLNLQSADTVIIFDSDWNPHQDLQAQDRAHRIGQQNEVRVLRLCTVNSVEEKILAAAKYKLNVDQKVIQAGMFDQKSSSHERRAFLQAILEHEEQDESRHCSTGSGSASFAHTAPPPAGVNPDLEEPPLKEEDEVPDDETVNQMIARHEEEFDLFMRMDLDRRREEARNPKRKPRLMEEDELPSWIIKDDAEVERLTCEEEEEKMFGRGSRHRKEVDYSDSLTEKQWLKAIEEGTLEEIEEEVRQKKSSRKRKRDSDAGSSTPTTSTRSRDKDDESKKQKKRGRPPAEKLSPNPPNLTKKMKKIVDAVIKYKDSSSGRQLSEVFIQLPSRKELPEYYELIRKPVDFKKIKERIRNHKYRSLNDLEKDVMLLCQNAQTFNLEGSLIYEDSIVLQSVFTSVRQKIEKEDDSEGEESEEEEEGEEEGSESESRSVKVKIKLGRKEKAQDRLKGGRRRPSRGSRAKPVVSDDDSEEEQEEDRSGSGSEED
Sequence of SMARCA2 (P51531 whole entry, the tested form may be a part): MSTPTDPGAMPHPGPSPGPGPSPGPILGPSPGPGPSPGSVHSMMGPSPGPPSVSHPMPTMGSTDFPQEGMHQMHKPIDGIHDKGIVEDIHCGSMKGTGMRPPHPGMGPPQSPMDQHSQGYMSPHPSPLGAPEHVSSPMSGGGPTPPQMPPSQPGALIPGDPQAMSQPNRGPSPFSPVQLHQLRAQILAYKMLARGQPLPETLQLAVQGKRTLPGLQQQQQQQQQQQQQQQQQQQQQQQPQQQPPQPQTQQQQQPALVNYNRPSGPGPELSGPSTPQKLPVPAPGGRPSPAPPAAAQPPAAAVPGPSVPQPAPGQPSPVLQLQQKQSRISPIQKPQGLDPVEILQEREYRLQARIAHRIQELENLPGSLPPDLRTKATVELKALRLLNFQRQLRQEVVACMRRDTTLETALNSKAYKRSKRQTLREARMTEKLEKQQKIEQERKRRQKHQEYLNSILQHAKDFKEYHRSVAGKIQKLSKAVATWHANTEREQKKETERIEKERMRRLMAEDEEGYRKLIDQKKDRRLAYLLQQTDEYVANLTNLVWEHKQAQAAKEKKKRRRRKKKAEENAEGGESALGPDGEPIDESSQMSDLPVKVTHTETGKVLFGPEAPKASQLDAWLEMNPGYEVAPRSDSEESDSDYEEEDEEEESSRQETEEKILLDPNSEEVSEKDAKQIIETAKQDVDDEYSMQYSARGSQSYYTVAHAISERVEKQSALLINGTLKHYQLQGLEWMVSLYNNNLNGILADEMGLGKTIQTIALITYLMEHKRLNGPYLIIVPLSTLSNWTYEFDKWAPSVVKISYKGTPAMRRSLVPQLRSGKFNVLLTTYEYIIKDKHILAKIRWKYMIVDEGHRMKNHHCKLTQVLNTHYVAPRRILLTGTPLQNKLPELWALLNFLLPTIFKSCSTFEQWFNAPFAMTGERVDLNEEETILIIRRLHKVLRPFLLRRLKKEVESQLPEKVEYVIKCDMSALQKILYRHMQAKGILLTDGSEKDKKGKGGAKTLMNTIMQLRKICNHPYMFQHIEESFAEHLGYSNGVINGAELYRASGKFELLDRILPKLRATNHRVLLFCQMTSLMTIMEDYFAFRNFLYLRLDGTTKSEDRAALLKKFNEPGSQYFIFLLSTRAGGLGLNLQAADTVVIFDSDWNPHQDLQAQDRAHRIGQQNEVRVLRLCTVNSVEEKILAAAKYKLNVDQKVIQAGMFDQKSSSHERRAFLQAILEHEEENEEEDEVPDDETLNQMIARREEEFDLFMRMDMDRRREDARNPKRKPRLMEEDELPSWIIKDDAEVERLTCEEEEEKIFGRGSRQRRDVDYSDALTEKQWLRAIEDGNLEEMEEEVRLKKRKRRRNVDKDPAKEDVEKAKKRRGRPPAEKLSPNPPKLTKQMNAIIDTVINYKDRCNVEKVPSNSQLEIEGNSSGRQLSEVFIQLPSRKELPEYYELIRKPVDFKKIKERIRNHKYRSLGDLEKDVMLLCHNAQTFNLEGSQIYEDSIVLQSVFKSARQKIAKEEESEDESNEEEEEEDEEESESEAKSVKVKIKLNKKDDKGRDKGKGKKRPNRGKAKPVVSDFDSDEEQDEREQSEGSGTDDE

Compound: Cc1ncsc1-c1ccc([C@H](CN2CCOCC2)NC(=O)[C@@H]2C[C@@H](O)CN2C(=O)[C@H](C2CCCCC2)n2cc([C@H]3CC[C@H](CN4CCC(c5ccc6c(c5)-n5c(nc(=O)c7c(Cl)cccc75)C65CCCCC5)C4)CC3)nn2)cc1 (stereo partly drawn) [Compound A130, (2S,4R)-1-((2S)-2-(4-((1r,4S)-4-((3-(4′-chloro-5′-oxo-5′H-spiro[cyclohexane-1,7′-indolo[1,2-a]quinazolin]-10′-yl)pyrrolidin-1-yl)methyl)cyclohexyl)-1H-1,2,3-triazol-1-yl)-2-cyclohexylacetyl)-4-hydroxy-N—((R)-1-(4-(4-methylthiazol-5-yl)phenyl)-2-morpholinoethyl)pyrrolidine-2-carboxamide]
- DC50 (SMARCA2; [1]): 10 to 100 nM
- Dmax (SMARCA2; [1]): > 90%
- DC50 (SMARCA4; [2]): > 1000 nM
- Dmax (SMARCA4; [3]): < 50%

Compound: Cc1ncsc1-c1ccc([C@H](CN2CCOCC2)NC(=O)[C@@H]2C[C@@H](O)CN2C(=O)[C@H](C2CCCCC2)n2cc([C@H]3CC[C@H](CN4CCC(c5ccc6c(c5)-n5c(nc(=O)c7c(Cl)cccc75)C65CCCCC5)CC4)CC3)nn2)cc1 [Compound A122, (2S,4R)-1-((S)-2-(4-((1r,4S)-4-((4-(4′-chloro-5′-oxo-5′H-spiro[cyclohexane-1,7′-indolo[1,2-a]quinazolin]-10′-yl)piperidin-1-yl)methyl)cyclohexyl)-1H-1,2,3-triazol-1-yl)-2-cyclohexylacetyl)-4-hydroxy-N—((R)-1-(4-(4-methylthiazol-5-yl)phenyl)-2-morpholinoethyl)pyrrolidine-2-carboxamide]
- DC50 (SMARCA2; [1]): < 10 nM
- Dmax (SMARCA2; [1]): > 90%
- SMARC A4 Hela HiBit DC50(nM) (SMARCA4; [2]): No fit
- Dmax (SMARCA4; [3]): 50 to 69%

Compound: Cc1ncccc1-c1ccc([C@H](CN2CCOCC2)NC(=O)[C@@H]2C[C@@H](O)CN2C(=O)[C@@H](n2cc([C@H]3CC[C@H](CN4CCC(c5ccc6c(c5)-n5c(nc(=O)c7c(Cl)cccc75)C65CCCCC5)CC4)CC3)nn2)C(C)(C)C)cc1 [Compound A174, (2S,4R)-1-((S)-2-(4-((1r,4S)-4-((4-(4′-chloro-5′-oxo-5′H-spiro[cyclohexane-1,7′-indolo[1,2-a]quinazolin]-10′-yl)piperidin-1-yl)methyl)cyclohexyl)-1H-1,2,3-triazol-1-yl)-3,3-dimethylbutanoyl)-4-hydroxy-N—((R)-1-(4-(2-methylpyridin-3-yl)phenyl)-2-morpholinoethyl)pyrrolidine-2-carboxamide]
- DC50 (SMARCA2; [1]): < 10 nM
- Dmax (SMARCA2; [1]): > 90%
- DC50 (SMARCA4; [2]): > 1000 nM
- Dmax (SMARCA4; [3]): < 50%

Compound: Cc1ncsc1-c1ccc([C@@H](NC(=O)[C@@H]2C[C@@H](O)CN2C(=O)[C@@H](n2cc(C3CC3)nn2)C(C)(C)C)C(=O)N2CCC3(CCC(CN4CCC(c5ccc6c(c5)-n5c(nc(=O)c7c(Br)cccc75)C65CCCCC5)CC4)CC3)CC2)cc1 [Compound A137, (2S,4R)—N—((R)-2-(9-((4-(4′-bromo-5′-oxo-5′H-spiro[cyclohexane-1,7′-indolo[1,2-a]quinazolin]-10′-yl)piperidin-1-yl)methyl)-3-azaspiro[5.5]undecan-3-yl)-1-(4-(4-methylthiazol-5-yl)phenyl)-2-oxoethyl)-1-((S)-2-(4-cyclopropyl-1H-1,2,3-triazol-1-yl)-3,3-dimethylbutanoyl)-4-hydroxypyrrolidine-2-carboxamide]
- DC50 (SMARCA2; [1]): < 10 nM
- Dmax (SMARCA2; [1]): > 90%
- DC50 (SMARCA4; [2]): < 10 nM
- Dmax (SMARCA4; [3]): 70 to 90%

Compound: Cc1ncsc1-c1ccc([C@H](Cn2cc(CN3CCC(c4ccc5c(c4)C4(CCCCC4)c4nc(=O)c6c(Br)cccc6n4-5)CC3)nn2)NC(=O)[C@@H]2C[C@@H](O)CN2C(=O)[C@@H](n2cc(C3CC3)nn2)C(C)(C)C)cc1 [Compound A115, (2S,4R)—N—((R)-2-(4-((4-(4′-bromo-5′-oxo-5′H-spiro[cyclohexane-1,7′-indolo[1,2-a]quinazolin]-9′-yl)piperidin-1-yl)methyl)-1H-1,2,3-triazol-1-yl)-1-(4-(4-methylthiazol-5-yl)phenyl)ethyl)-1-((S)-2-(4-cyclopropyl-1H-1,2,3-triazol-1-yl)-3,3-dimethylbutanoyl)-4-hydroxypyrrolidine-2-carboxamide]
- DC50 (SMARCA2; [1]): 10 to 100 nM
- Dmax (SMARCA2; [1]): 70 to 90%
- DC50 (SMARCA4; [2]): 10 to 100 nM
- Dmax (SMARCA4; [3]): > 90%

Compound: Cc1ccncc1-c1ccc([C@H](CN2CCOCC2)NC(=O)[C@@H]2C[C@@H](O)CN2C(=O)[C@@H](n2cc([C@H]3CC[C@H](CN4CCC(c5ccc6c(c5)-n5c(nc(=O)c7c(Cl)cccc75)C65CCCCC5)CC4)CC3)nn2)C(C)(C)C)cc1 [Compound A175]
- DC50 (SMARCA2; [1]): < 10 nM
- Dmax (SMARCA2; [1]): > 90%
- DC50 (SMARCA4; [2]): > 1000 nM
- Dmax (SMARCA4; [3]): < 50%

Compound: Cc1ncsc1-c1ccc([C@H](Cn2cc([C@H]3CC[C@H](CN4CCC(c5ccc6c(n5)-n5c(nc(=O)c7c(Br)cccc75)C65CCCCC5)CC4)CC3)nn2)NC(=O)[C@@H]2C[C@@H](O)CN2C(=O)[C@@H](NC(=O)C2(F)CC2)C(C)(C)C)cc1 [Compound A34, (2S,4R)—N—((R)-2-(4-((1r,4R)-4-((4-(4′-bromo-5′-oxo-5′H-spiro[cyclohexane-1,7′-pyrido[3′,2′: 4,5]pyrrolo[1,2-a]quinazolin]-10′-yl)piperidin-1-yl)methyl)cyclohexyl)-1H-1,2,3-triazol-1-yl)-1-(4-(4-methylthiazol-5-yl)phenyl)ethyl)-1-((S)-2-(1-fluorocyclopropane-1-carboxamido)-3,3-dimethylbutanoyl)-4-hydroxypyrrolidine-2-carboxamide]
- DC50 (SMARCA2; [1]): 501 to 1000 nM
- Dmax (SMARCA2; [1]): 50 to 69%
- DC50 (SMARCA4; [2]): > 1000 nM
- Dmax (SMARCA4; [4]): < 50%

Compound: Cc1ncsc1-c1ccc([C@H](CCCCCN2CCC(c3ccc4c(c3)C3(CCCCC3)c3nc(=O)c5c(Br)cccc5n3-4)CC2)NC(=O)[C@@H]2C[C@@H](O)CN2C(=O)[C@@H](NC(=O)C2(CN(C)C)CC2)C(C)(C)C)cc1 [Compound A18, (2S,4R)—N—((S)-6-(4-(4′-bromo-5′-oxo-5′H-spiro[cyclohexane-1,7′-indolo[1,2-a]quinazolin]-9′-yl)piperidin-1-yl)-1-(4-(4-methylthiazol-5-yl)phenyl)hexyl)-1-((S)-2-(1-((dimethylamino)methyl)cyclopropane-1-carboxamido)-3,3-dimethylbutanoyl)-4-hydroxypyrrolidine-2-carboxamide]
- SMARC A2 Hela HiBit Dmax (%) (SMARCA2; [1]): B (B (70-90% degradation))
- DC50 (SMARCA2): < 100 nM
- SMARC A4 Hela HiBit Dmax(%) (SMARCA4; [2]): B (B (70-90% degradation))
- DC50 (SMARCA4): < 100 nM

Compound: Cc1ncsc1-c1ccc([C@H](Cn2cc([C@H]3CC[C@H](CN4CCC(c5ccc6c(c5)C5(CCCCC5)c5nc(=O)c7c(Br)cccc7n5-6)CC4)CC3)nn2)NC(=O)[C@@H]2C[C@@H](O)CN2C(=O)[C@@H](NC(=O)C2(F)CC2)C(C)(C)C)cc1 [Compound A33, (2S,4R)—N—((R)-2-(4-((1r,4R)-4-((4-(4′-bromo-5′-010-5′H-spiro[cyclohexane-1,7′-indolo[1,2-a]quinazolin]-9′-yl)piperidin-1-yl)methyl)cyclohexyl)-1H-1,2,3-triazol-1-yl)-1-(4-(4-methylthiazol-5-yl)phenyl)ethyl)-1-((S)-2-(1-fluorocyclopropane-1-carboxamido)-3,3-dimethylbutanoyl)-4-hydroxypyrrolidine-2-carboxamide]
- DC50 (SMARCA2; [1]): < 100 nM
- Dmax (SMARCA2; [1]): > 90%
- DC50 (SMARCA4; [2]): 100 to 500 nM
- Dmax (SMARCA4; [4]): 70 to 90%

Compound: Cc1ncsc1-c1ccc([C@H](CCCCCN2CCC(c3ccc4c(n3)-n3c(nc(=O)c5c(Br)cccc53)C43CCCCC3)CC2)NC(=O)[C@H]2C[C@H](O)CN2C(=O)[C@@H](n2cc(C3CC3)nn2)C(C)(C)C)cc1 [Compound A37, (2R,4S)—N—((S)-6-(4-(4′-bromo-5′-oxo-5′H-spiro[cyclohexane-1,7′-pyrido[3′,2′: 4,5]pyrrolo[1,2-a]quinazolin]-10′-yl)piperidin-1-yl)-1-(4-(4-methylthiazol-5-yl)phenyl)hexyl)-1-((S)-2-(4-cyclopropyl-1H-1,2,3-triazol-1-yl)-3,3-dimethylbutanoyl)-4-hydroxypyrrolidine-2-carboxamide]
- DC50 (SMARCA2; [1]): < 100 nM
- Dmax (SMARCA2; [1]): > 90%
- DC50 (SMARCA4; [2]): < 100 nM
- Dmax (SMARCA4; [4]): > 90%
